Data on 66 molecules can be found in ChEMBL document CHEMBL3880402, “Inhibitors of E1 activating enzymes” (2006).

Broadly, the IC50 is the concentration that inhibits the measured activity by half.

A value given as a limit tells only on which side of the number the result lay.

The target of this assay is T1, NEDD8-activating enzyme E1 catalytic subunit (Homo sapiens, UniProt Q8TBC4).
T1 sequence (Q8TBC4 whole entry): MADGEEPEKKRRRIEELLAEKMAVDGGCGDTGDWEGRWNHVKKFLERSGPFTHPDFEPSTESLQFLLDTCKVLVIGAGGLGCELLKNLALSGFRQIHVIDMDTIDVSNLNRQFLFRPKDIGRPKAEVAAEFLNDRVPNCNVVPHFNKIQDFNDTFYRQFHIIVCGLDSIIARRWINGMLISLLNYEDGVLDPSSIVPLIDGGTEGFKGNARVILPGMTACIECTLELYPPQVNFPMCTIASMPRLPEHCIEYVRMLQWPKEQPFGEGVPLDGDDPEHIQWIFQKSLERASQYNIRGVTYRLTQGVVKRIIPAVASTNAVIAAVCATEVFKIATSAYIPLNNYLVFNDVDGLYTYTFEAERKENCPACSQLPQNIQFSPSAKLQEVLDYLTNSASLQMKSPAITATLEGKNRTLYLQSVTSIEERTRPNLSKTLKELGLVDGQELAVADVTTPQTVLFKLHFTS
Put plainly: Inhibition of recombinant human untagged NAEalpha/N-terminal His-tagged NAEbeta expressed in Bac-to-Bac expression system using FLAG-tagged NEDD8 as substrate after 90 mins in presence of GST-tagged Ubc12 by HTRF assay.
On to `COc1ncnc2c1ccn2[C@H]1C[C@H](O)[C@@H](COS(N)(=O)=O)O1`, for which the IC50 is at most 1 µM.

For the molecule `NS(=O)(=O)OC[C@H]1O[C@@H](n2cnc3c(C#Cc4ccc(F)cc4)ncnc32)[C@H](O)[C@@H]1O`, the IC50 is 0.1 to 1 µM.

As to `NS(=O)(=O)CC[C@H]1O[C@@H](n2cnc3c(NCc4ccc(Cl)cc4)ncnc32)[C@H](O)[C@@H]1O`, the IC50 was 0.1 to 1 µM.

For `NS(=O)(=O)OC[C@H]1O[C@@H](n2cnc3c(CN4C(=O)c5ccccc5C4=O)ncnc32)[C@H](O)[C@@H]1O`, the half-maximal inhibitory concentration (IC50) fell in the range of 0.1 to 1 µM.

Consider `NS(=O)(=O)OC[C@H]1O[C@@H](n2cnc3c(Nc4ccc(Cl)cc4)ncnc32)[C@H](O)[C@@H]1O`, for which the IC50 was in the range of 0.1 to 1 µM.

Turning to `NS(=O)(=O)OC[C@H]1O[C@@H](n2cnc3c(CNC(=O)c4ccccc4)ncnc32)[C@H](O)[C@@H]1O`, the IC50 lay within 0.1 to 1 µM.

Turning to `NS(=O)(=O)OC[C@H]1O[C@@H](n2cnc3c(/C=C/c4ccccc4)ncnc32)[C@H](O)[C@@H]1O`, the IC50 fell in the range of 0.1 to 1 µM.

In the case of `Cc1noc(C)c1-c1ncnc2c1ncn2[C@@H]1O[C@H](COS(N)(=O)=O)[C@@H](O)[C@H]1O`, the IC50 fell in the range of 0.1 to 1 µM.

`COCCNc1ncnc2c1ncn2[C@@H]1O[C@H](COS(N)(=O)=O)[C@@H](O)[C@H]1O`: the IC50 was in the range of 0.1 to 1 µM.

As to `NS(=O)(=O)OC[C@H]1O[C@@H](n2cnc3c(CCc4ccccc4)ncnc32)[C@H](O)[C@@H]1O`, the IC50 was in the range of 0.1 to 1 µM.

Consider `COc1ccc(C#Cc2ncnc3c2ncn3[C@@H]2O[C@H](COS(N)(=O)=O)[C@@H](O)[C@H]2O)cc1`, for which the IC50 fell in the range of 0.1 to 1 µM.

In the case of `CCCc1ncnc2c1ncn2[C@@H]1C[C@H](COS(N)(=O)=O)[C@@H](O)[C@H]1O`, the IC50 was in the range of 0.1 to 1 µM.

With `Cc1ncnc2c1ncn2[C@@H]1O[C@H](COS(N)(=O)=O)[C@@H](O)[C@H]1O`, the IC50 fell in the range of 0.1 to 1 µM.

`NS(=O)(=O)NC[C@H]1O[C@@H](n2cnc3c(N[C@@H](CO)c4ccccc4)ncnc32)[C@H](O)[C@@H]1O`: the IC50 is 0.1 to 1 µM.

In the case of `NS(=O)(=O)OC[C@H]1O[C@@H](n2cnc3c(NC(=O)Nc4ccccc4)ncnc32)[C@H](O)[C@@H]1O`, the IC50 lay in the range of 0.1 to 1 µM.

Regarding `NS(=O)(=O)OC[C@H]1O[C@@H](n2cnc3c(NC(=O)c4ccc(F)cc4)ncnc32)[C@H](O)[C@@H]1O`, the IC50 was 0.1 to 1 µM.

On to `NS(=O)(=O)NC[C@H]1O[C@@H](n2cnc3c(NCc4csc5ccccc45)ncnc32)[C@H](O)[C@@H]1O`, for which the IC50 was at most 1 µM.

Take `CO[C@H]1[C@H](O)[C@@H](COS(N)(=O)=O)O[C@H]1n1cnc2c(N[C@H]3CCc4ccccc43)ncnc21`: the IC50 lay within 0.1 to 1 µM.

As for `NS(=O)(=O)OC[C@H]1O[C@@H](n2cnc3c(NCCN4CCOCC4)ncnc32)[C@H](O)[C@@H]1O`, the IC50 is 0.1 to 1 µM.

In the case of `NS(=O)(=O)OC[C@H]1C[C@@H](n2cnc3c(C#Cc4ccccc4)ncnc32)[C@H](O)[C@@H]1O`, the IC50 was 0.1 to 1 µM.

Turning to `NS(=O)(=O)OC[C@H]1O[C@@H](n2ccc3c(NCc4ccccc4)nccc32)C[C@@H]1O`, the IC50 is at most 1 µM.

For the molecule `NS(=O)(=O)OC[C@H]1C[C@@H](n2cnc3c(CCc4ccccc4)ncnc32)[C@H](O)[C@@H]1O`, the IC50 was 0.1 to 1 µM.

In the case of `COc1ccccc1CNc1ncnc2c1ncn2[C@@H]1O[C@H](COS(N)(=O)=O)[C@@H](O)[C@H]1O`, the IC50 was 0.1 to 1 µM.

As to `COc1ccccc1C#Cc1ncnc2c1ncn2[C@@H]1O[C@H](COS(N)(=O)=O)[C@@H](O)[C@H]1O`, the IC50 was 0.1 to 1 µM.

Regarding `CCc1cn([C@H]2C[C@H](O)[C@@H](COS(N)(=O)=O)O2)c2ncnc(CCc3ccccc3)c12`, the IC50 is at most 1 µM.

In the case of `NS(=O)(=O)OC[C@@H]1C[C@@H](O)[C@H](n2cnc3c(N[C@H]4CCc5ccccc54)ncnc32)O1`, the IC50 fell in the range of 0.1 to 1 µM.

For the molecule `NS(=O)(=O)OC[C@H]1O[C@@H](n2ccc3cncnc32)C[C@@H]1O`, the IC50 lay within 0.1 to 1 µM.

As for `NS(=O)(=O)NC[C@H]1O[C@@H](n2cnc3c(NCc4ccccc4)ncnc32)[C@H](O)[C@@H]1O`, the IC50 fell in the range of 0.1 to 1 µM.

`NS(=O)(=O)OC[C@H]1O[C@@H](n2cnc3c(NCc4ccc(Cl)cc4)ncnc32)[C@H](O)[C@@H]1O`: the IC50 lay in the range of 0.1 to 1 µM.

For the molecule `NS(=O)(=O)NC[C@H]1O[C@@H](n2cnc3c(NCc4cccs4)ncnc32)[C@H](O)[C@@H]1O`, the IC50 lay in the range of 0.1 to 1 µM.

On to `NS(=O)(=O)OC[C@H]1O[C@@H](n2cnc3c(NCc4cccs4)ncnc32)[C@H](O)[C@@H]1O`, for which the IC50 lay within 0.1 to 1 µM.

Turning to `NS(=O)(=O)OC[C@H]1O[C@@H](n2cnc3c(NCC4CCCCC4)ncnc32)[C@H](O)[C@@H]1O`, the IC50 lay in the range of 0.1 to 1 µM.

Take `NS(=O)(=O)OC[C@H]1O[C@@H](n2cnc3c(C4CC4)ncnc32)[C@H](O)[C@@H]1O`: the IC50 fell in the range of 0.1 to 1 µM.

In the case of `NS(=O)(=O)OC[C@H]1O[C@@H](n2cnc3c(C#Cc4ccccc4F)ncnc32)[C@H](O)[C@@H]1O`, the IC50 fell in the range of 0.1 to 1 µM.

On to `NS(=O)(=O)OC[C@H]1O[C@@H](n2cnc3c(N[C@H](CO)c4ccccc4)ncnc32)[C@H](O)[C@@H]1O`, for which the IC50 lay within 0.1 to 1 µM.

Regarding `CO[C@@H]1[C@H](O)[C@@H](COS(N)(=O)=O)O[C@H]1n1cnc2c(N[C@H]3CCc4ccccc43)ncnc21`, the IC50 was 0.1 to 1 µM.

As for `NS(=O)(=O)NC[C@H]1O[C@@H](n2cnc3c(NCc4ccc5c(c4)OCO5)ncnc32)[C@H](O)[C@@H]1O`, the IC50 was in the range of 0.1 to 1 µM.

As to `NS(=O)(=O)OC[C@H]1O[C@@H](n2cnc3c(N[C@@H](CO)c4ccccc4)ncnc32)[C@H](O)[C@@H]1O`, the IC50 fell in the range of 0.1 to 1 µM.

Regarding `NS(=O)(=O)OC[C@H]1O[C@@H](n2cnc3c(C#Cc4cccc(F)c4)ncnc32)[C@H](O)[C@@H]1O`, the IC50 lay in the range of 0.1 to 1 µM.

As to `NS(=O)(=O)NC[C@H]1O[C@@H](n2cnc3c(NCCOc4ccccc4)ncnc32)[C@H](O)[C@@H]1O`, the IC50 was at most 1 µM.

For `NS(=O)(=O)OC[C@H]1O[C@@H](n2cnc3c(Cc4ccc(F)cc4)ncnc32)[C@H](O)[C@@H]1O`, the IC50 was at most 1 µM.

On to `NS(=O)(=O)OC[C@H]1O[C@@H](n2cnc3c(CN4Cc5ccccc5C4)ncnc32)[C@H](O)[C@@H]1O`, for which the IC50 was 0.1 to 1 µM.

In the case of `NS(=O)(=O)OC[C@H]1O[C@@H](n2cnc3c(NCc4ccccc4)ncnc32)[C@H](O)[C@@H]1O`, the IC50 was in the range of 0.1 to 1 µM.

As to `NS(=O)(=O)OC[C@H]1C[C@@H](n2cnc3c(N[C@H]4CCc5ccccc54)ncnc32)[C@H](O)[C@@H]1O`, the IC50 was 0.1 to 1 µM.

`COc1ccccc1C(=O)Nc1ncnc2c1ncn2[C@@H]1O[C@H](COS(N)(=O)=O)[C@@H](O)[C@H]1O`: the IC50 lay in the range of 0.1 to 1 µM.

On to `COCCNc1ncnc2c1ncn2[C@@H]1O[C@H](CNS(N)(=O)=O)[C@@H](O)[C@H]1O`, for which the IC50 was at most 1 µM.

Turning to `NS(=O)(=O)NC[C@H]1O[C@@H](n2cnc3c(C#Cc4ccccc4)ncnc32)[C@H](O)[C@@H]1O`, the IC50 was 0.1 to 1 µM.

As for `NS(=O)(=O)OC[C@H]1O[C@@H](n2cnc3c(NC(=O)c4ccc(Cl)cc4)ncnc32)[C@H](O)[C@@H]1O`, the IC50 was in the range of 0.1 to 1 µM.

Consider `NS(=O)(=O)OC[C@H]1O[C@@H](n2cnc3c(CNC(=O)c4cc(F)cc(F)c4)ncnc32)[C@H](O)[C@@H]1O`, for which the IC50 fell in the range of 0.1 to 1 µM.

For `NS(=O)(=O)NC[C@H]1O[C@@H](n2cnc3c(N[C@@H]4c5ccccc5C[C@@H]4O)ncnc32)[C@H](O)[C@@H]1O`, the IC50 fell in the range of 0.1 to 1 µM.

In the case of `NS(=O)(=O)NC[C@H]1O[C@@H](n2cnc3c(NC[C@H](O)c4cccc(O)c4)ncnc32)[C@H](O)[C@@H]1O`, the IC50 is 0.1 to 1 µM.

Consider `NS(=O)(=O)OC[C@H]1O[C@@H](n2cnc3c(C#CC4CC4)ncnc32)[C@H](O)[C@@H]1O`, for which the IC50 is 0.1 to 1 µM.

`NS(=O)(=O)OC[C@H]1O[C@@H](n2cnc3c(C#Cc4ccc(Br)cc4)ncnc32)[C@H](O)[C@@H]1O`: the IC50 lay in the range of 0.1 to 1 µM.

As for `NS(=O)(=O)OC[C@H]1O[C@@H](n2cnc3c(NCc4ccccc4)ncnc32)C[C@@H]1O`, the IC50 lay in the range of 0.1 to 1 µM.

As for `NS(=O)(=O)OC[C@H]1O[C@@H](n2cnc3c(-c4cccc(C(F)(F)F)c4)ncnc32)[C@H](O)[C@@H]1O`, the half-maximal inhibitory concentration (IC50) was 0.1 to 1 µM.

For `NS(=O)(=O)OC[C@H]1O[C@@H](n2cnc3c(N[C@H]4CCc5ccccc54)nncc32)[C@H](O)[C@@H]1O`, the IC50 fell in the range of 0.1 to 1 µM.

`NS(=O)(=O)OC[C@H]1O[C@@H](n2cnc3c(C#Cc4ccccc4Cl)ncnc32)[C@H](O)[C@@H]1O`: the IC50 lay within 0.1 to 1 µM.

As to `NS(=O)(=O)OC[C@H]1C[C@@H](n2cnc3c(N[C@H]4CCc5ccccc54)ncnc32)C[C@@H]1O`, the IC50 was 0.1 to 1 µM.

As for `NS(=O)(=O)OC[C@H]1C[C@@H](n2cnc3c(C#Cc4ccccc4)ncnc32)C[C@@H]1O`, the IC50 is 0.1 to 1 µM.

For `NS(=O)(=O)OC[C@H]1O[C@@H](n2cnc3c(C#Cc4cccc(Br)c4)ncnc32)[C@H](O)[C@@H]1O`, the IC50 is 0.1 to 1 µM.

In the case of `NS(=O)(=O)OC[C@H]1O[C@@H](n2ccc3c(NC(=O)c4ccccc4)ncnc32)C[C@@H]1O`, the IC50 lay within 0.1 to 1 µM.

On to `NS(=O)(=O)NC[C@H]1O[C@@H](n2cnc3c(NCc4cccc5ccccc45)ncnc32)[C@H](O)[C@@H]1O`, for which the IC50 fell in the range of 0.1 to 1 µM.

Take `NS(=O)(=O)OC[C@H]1O[C@@H](n2cnc3c(C#Cc4ccccc4Br)ncnc32)[C@H](O)[C@@H]1O`: the IC50 lay in the range of 0.1 to 1 µM.

As to `NS(=O)(=O)OC[C@H]1O[C@@H](n2cnc3c(NCc4cccc5ccccc45)ncnc32)[C@H](O)[C@@H]1O`, the IC50 was 0.1 to 1 µM.

On to `NS(=O)(=O)OC[C@H]1O[C@@H](n2cnc3c(-c4ccco4)ncnc32)[C@H](O)[C@@H]1O`, for which the IC50 fell in the range of 0.1 to 1 µM.

Consider `NS(=O)(=O)OC[C@H]1O[C@@H](n2cnc3c(CC4Cc5ccccc5C4)ncnc32)[C@H](O)[C@@H]1O`, for which the half-inhibitory concentration (IC50) fell in the range of 0.1 to 1 µM.
